In the PolyMetriX glass transition set:
± gives the standard deviation of the reports.

First: *Oc1ccc(S(=O)(=O)c2ccc(-c3ccc(S(=O)(=O)c4ccc(*)cc4)cc3)cc2)cc1 (repeat unit)
Second: *Oc1ccc(S(=O)(=O)c2ccc(Oc3ccc(-c4ccc(*)cc4)cc3)cc2)cc1 (repeat unit)
The glass transition temperature of the first is higher: 282.00 °C for the first, 221.00 °C for the second.

Compared with `*CCN1C(=O)c2ccc(C(c3ccc4c(c3)C(=O)N(*)C4=O)(C(F)(F)F)C(F)(F)F)cc2C1=O` (repeat unit), `*c1ccc(-c2ccc(N3C(=O)c4ccc(Oc5ccc6c(c5)C(=O)N(*)C6=O)cc4C3=O)cc2C(F)(F)F)c(C(F)(F)F)c1` (repeat unit) is higher in glass transition temperature: 180.00 °C for the first, 275.00 °C for the second.

Going from `*c1ccc(-c2nnc(*)o2)c(OCCCCCCCCCC)c1` (repeat unit) to `*c1ccc2c(c1)C(CCCCCC)(CCCCCC)c1cc(*)ccc1-2` (repeat unit), the glass transition temperature falls from 165.00 °C to 102.50 ± 2.1 °C.

Going from `*c1ccc(CC(=O)Nc2ccc(Cc3ccc(NC(=O)Cc4ccc(-c5sc(*)c(-c6ccccc6)c5-c5ccccc5)cc4)cc3)cc2)cc1` (repeat unit) to `*Oc1cccc(NC(=O)c2ccc(P(=O)(c3ccccc3)c3ccc(C(=O)Nc4cccc(Oc5ccc(P(=O)(c6ccccc6)c6ccc(*)cc6)cc5)c4)cc3)cc2)c1` (repeat unit), the glass transition temperature rises from 227.00 °C to 235.00 °C.

First: *c1ccc(Oc2ccc(C(C)(C)c3ccc(Oc4ccc(-c5nnc(*)c6c(-c7ccccc7)c(-c7ccc8ccccc8c7)c(-c7ccc8ccccc8c7)c(-c7ccccc7)c56)cc4)cc3)cc2)cc1 (repeat unit)
Second: *c1ccc(Oc2ccc(C(=O)c3cccc(-c4cccc(C(=O)c5ccc(Oc6ccc(-c7nc(-c8cccc(-c9nc(*)c(-c%10ccccc%10)[nH]9)c8)[nH]c7-c7ccccc7)cc6)cc5)c4)c3)cc2)cc1 (repeat unit)
The glass transition temperature of the first is higher: 290.00 °C for the first, 250.00 °C for the second.

First: *Oc1ccc(SC(=O)Sc2ccc(*)cc2)cc1 (repeat unit)
Second: *Oc1ccc(NC(=C(C#N)C#N)c2ccc3cc(C(Nc4ccc(*)cc4)=C(C#N)C#N)ccc3c2)cc1 (repeat unit)
The glass transition temperature of the first is lower: 117.00 °C for the first, 280.00 °C for the second.

Compared with `*C(=O)Nc1ccc(Oc2ccc(C(C)(C)c3cccc(C(C)(C)c4ccc(Oc5ccc(N6C(=O)c7ccc(*)cc7C6=O)cc5)cc4)c3)cc2)cc1` (repeat unit), `*Oc1ccc(Oc2ccc(NC(=O)c3ccc(Oc4ccc(C(C)(C)c5cccc(C(C)(C)c6ccc(Oc7ccc(C(=O)Nc8ccc(*)cc8)cc7)cc6)c5)cc4)cc3)cc2)cc1` (repeat unit) is lower in glass transition temperature: 177.00 °C for the first, 147.00 °C for the second.

Going from `*CC(c1ccccc1)C1C(=O)N(c2ccc(Oc3ccccc3)cc2)C(=O)C1*` (repeat unit) to `*CC(c1ccccc1)C1C(=O)N(c2ccccc2)C(=O)C1*` (repeat unit), the glass transition temperature rises from 194.00 °C to 221.00 °C.

Compared with `*OC1CCCCC1OC(*)=O` (repeat unit), `*CC(*)(C)C(=O)OC1CCOCC1` (repeat unit) is higher in glass transition temperature: 117.30 °C for the first, 153.50 °C for the second.

Compared with `*Oc1ccc(C(C)(C)c2ccc(C(C)(C)c3ccc(Oc4ccc(C(=O)Nc5cccc(NC(=O)c6ccc(*)cc6)c5)cc4)cc3)cc2)cc1` (repeat unit), `*Oc1ccc(S(=O)(=O)c2ccc(Oc3ccc(NC(=O)c4cc(NC(=O)c5ccncc5)cc(C(=O)Nc5ccc(*)cc5)c4)cc3)cc2)cc1` (repeat unit) is higher in glass transition temperature: 173.00 °C for the first, 283.00 °C for the second.

First: *c1ccc(Oc2ccc(-c3cnc4cc(-c5ccc6nc(*)cnc6c5)ccc4n3)cc2)cc1 (repeat unit)
Second: *c1ccc(Oc2ccc(S(=O)(=O)c3ccc(Oc4ccc(-c5nc(-c6ccccn6)nnc5*)cc4)cc3)cc2)cc1 (repeat unit)
The glass transition temperature of the first is higher: 334.00 °C for the first, 265.00 °C for the second.

First: *CCCCCCCCCCn1c2ccccc2c2cc(/C=C(\C#N)C(=O)OCCCCCCOC(=O)/C(C#N)=C/c3ccc4c(c3)c3ccccc3n4*)ccc21 (repeat unit)
Second: *CCCCCCCCCCC(=O)Nc1ccc(Oc2ccc(NC(=O)CCCCCCCCCCN3C(=O)c4ccc(C(=O)c5ccc6c(c5)C(=O)N(*)C6=O)cc4C3=O)cc2)cc1 (repeat unit)
The glass transition temperature of the first is lower: 94.50 °C for the first, 132.00 °C for the second.

Going from `*Oc1ccc2c(c1)C1(CC2(C)C)CC(C)(C)c2ccc(OC(=O)c3cccc(C(*)=O)c3)cc21` (repeat unit) to `*Oc1ccc(OC(=O)c2ccc(C(*)=O)cc2Oc2ccc(Oc3ccccc3)cc2)cc1` (repeat unit), the glass transition temperature falls from 245.00 °C to 83.00 °C.

Compared with `*CC(C)(C)CS(*)(=O)=O` (repeat unit), `*CCCC(C)(C)CNC(=O)C(=O)N*` (repeat unit) is higher in glass transition temperature: 108.50 °C for the first, 109.00 °C for the second.

First: *CCOC(=O)CCCCCCCCCCC(=O)OCCOC(=O)c1ccc(C(=O)O*)cc1 (repeat unit)
Second: *CCCCCOC(=O)NNC(=O)CCCCCCCCC(=O)NNC(=O)O* (repeat unit)
The glass transition temperature of the first is lower: -8.00 °C for the first, 20.00 °C for the second.

Compared with `*OC(=O)C(Cc1ccccc1)NC(=O)CCCCCCCCCCC(=O)NC(Cc1ccccc1)C(=O)OC1COC2C(*)COC12` (repeat unit), `*CCCNC(=O)C(Cc1ccccc1)NC(=O)CCCCCCCCC(=O)NC(Cc1ccccc1)C(=O)NCCCOCCOCCO*` (repeat unit) is lower in glass transition temperature: 76.00 °C for the first, 44.00 °C for the second.

Going from `*c1ccc(N2C(=O)c3ccc(Oc4ccc(Oc5ccc(P(=O)(c6ccccc6)c6ccc(Oc7ccc(Oc8ccc9c(c8)C(=O)N(*)C9=O)cc7)cc6)cc5)cc4)cc3C2=O)cc1` (repeat unit) to `*c1ccc(Oc2ccc(-c3ccc(Oc4ccc(N5C(=O)c6ccc(Oc7ccc8c(c7)C(=O)N(*)C8=O)cc6C5=O)cc4)cc3)cc2)cc1` (repeat unit), the glass transition temperature rises from 220.00 °C to 245.00 °C.

First: *CCCOC(=O)CCC(=O)O* (repeat unit)
Second: *CCCCCCCCCCNC(=O)/C=C(\C)C(=O)N* (repeat unit)
The glass transition temperature of the first is lower: -34.70 °C for the first, 74.00 °C for the second.

Going from `*CCCCCCCCCCCCN1C(=O)c2cccc3c(-c4ccc5c6c(cccc46)C(=O)N(CCCCCCCCCCCCN4C(=O)c6ccc7c8ccc9c%10c(ccc(c%11ccc(c6c7%11)C4=O)c%108)C(=O)N(*)C9=O)C5=O)ccc(c23)C1=O` (repeat unit) to `*c1ccc(C(=O)OCCCCCCCCCCOc2ccc(/C=C3\CCCC/C(=C\c4ccc(OCCCCCCCCCCOC(=O)c5ccc(-c6nnc(*)o6)cc5)cc4)C3=O)cc2)cc1` (repeat unit), the glass transition temperature falls from 210.00 °C to 74.00 °C.

Going from `*CCCCCCCCCCCCOc1ccc(/C=N/N=C/c2ccc(O*)cc2O)c(O)c1` (repeat unit) to `*CC(*)(C)C(=O)OCCCCCCCCCCOc1ccc(C#Cc2cc(OC)c(/C=C/c3ccncc3)cc2OC)cc1` (repeat unit), the glass transition temperature falls from 89.00 °C to 87.10 °C.

First: *c1cccc(C(=O)c2c(C)cc(C)c(N3C(=O)c4ccc(-c5ccc6c(c5)C(=O)N(*)C6=O)cc4C3=O)c2C)c1 (repeat unit)
Second: *c1ccc(OCCOCCOCCOc2cccc(N3C(=O)c4ccc(Oc5ccc6c(c5)C(=O)N(*)C6=O)cc4C3=O)c2)cc1 (repeat unit)
The glass transition temperature of the first is higher: 320.00 °C for the first, 107.00 °C for the second.

Compared with `*c1ccc(Oc2ccc(N3C(=O)C(Cl)=C(Oc4ccc(C(c5ccc(OC6=C(Cl)C(=O)N(*)C6=O)cc5)(C(F)(F)F)C(F)(F)F)cc4)C3=O)cc2)cc1` (repeat unit), `*c1ccc(Oc2ccc(C(c3ccc(Oc4ccc(-c5nnc(*)n5-c5ccccc5)cc4)cc3)(C(F)(F)F)C(F)(F)F)cc2)cc1` (repeat unit) is higher in glass transition temperature: 193.00 °C for the first, 203.00 °C for the second.

Compared with `*CC(*)(C)C(=O)OCCO[Si](C)(C)C` (repeat unit), `*CC(*)OC(=O)C(C)(C)CC(C)(C)C` (repeat unit) is lower in glass transition temperature: 89.00 °C for the first, 55.00 °C for the second.

First: *C(*)C(=O)OC(C)C (repeat unit)
Second: *CC(CC)O* (repeat unit)
The glass transition temperature of the first is higher: 70.00 °C for the first, -71.50 °C for the second.

Compared with `*c1ccc2c(c1)C(=O)N(c1ccc(Oc3cccc(Oc4ccc(N5C(=O)c6ccc(C(*)(C(F)(F)F)C(F)(F)F)cc6C5=O)cc4)c3)cc1)C2=O` (repeat unit), `*Oc1ccc(C(=O)c2ccccc2)c(-c2cc(Oc3ccc(C(c4ccc(*)cc4)(C(F)(F)F)C(F)(F)F)cc3)ccc2C(=O)c2ccccc2)c1` (repeat unit) is lower in glass transition temperature: 241.50 ± 18 °C for the first, 164.00 °C for the second.

Compared with `*CC(O)COc1ccc(S(=O)(=O)c2ccc(OCC(O)COc3cccc(O*)c3)cc2)cc1` (repeat unit), `*CCOC(=O)C1CCC(C(=O)OCCOc2ccc(C(C)(C)c3ccc(O*)cc3)cc2)CC1` (repeat unit) is lower in glass transition temperature: 105.00 °C for the first, 57.00 °C for the second.

Compared with `*c1ccc(-c2sc(-c3ccc(-c4cc(SCCCC)c(*)s4)cc3)cc2SCCCC)cc1` (repeat unit), `*c1ccc(C(c2ccccc2)(c2ccc(-c3nc4ccc(-c5ccc6nc(*)oc6c5)cc4o3)cc2)C(F)(F)F)cc1` (repeat unit) is higher in glass transition temperature: 26.40 °C for the first, 350.00 °C for the second.

First: *c1ccc(Oc2ccc(S(=O)(=O)c3ccc(Oc4ccc(-c5c6c(c(*)c7ccccc57)C(=O)N(c5ccccc5)C6=O)cc4)cc3)cc2)cc1 (repeat unit)
Second: *c1ccc(Oc2ccc(N3C(=O)N4C(c5ccc(OC)cc5)N(*)C(=O)N4C3c3ccc(OC)cc3)cc2)cc1 (repeat unit)
The glass transition temperature of the first is higher: 310.00 °C for the first, 163.00 °C for the second.

Going from `*Nc1cc(NC(=O)c2cc(OCCN(C)c3ccc(C#N)cc3)cc(C(*)=O)c2)cc(C(=O)OCCN(C)c2ccc(C#N)cc2)c1` (repeat unit) to `*Nc1ccc(C(c2ccc(NC(=O)c3cc(C(*)=O)cc(C(C)(C)C)c3)cc2)(C(F)(F)F)C(F)(F)F)cc1` (repeat unit), the glass transition temperature rises from 167.00 °C to 284.10 °C.

Going from `*Sc1cc(C)c(*)cc1C` (repeat unit) to `*c1ccc(NC(=O)c2cc(NC(=O)c3ccc(NC(=O)C(C)N4C(=O)c5ccccc5C4=O)cc3)cc(C(=O)Nc3ccc(S(*)(=O)=O)cc3)c2)cc1` (repeat unit), the glass transition temperature falls from 298.00 °C to 208.00 °C.

Going from `*CO*` (repeat unit) [Polyoxymethylene ] to `*Nc1ccc(C(c2ccc(NC(=O)c3ccc(C(*)=O)cc3)cc2)(C(F)(F)F)C(F)(F)F)cc1` (repeat unit), the glass transition temperature rises from -56 ± 8.9 °C to 290.00 °C.
